The assay relates to human KRAS G12D mutant-positive PK-59 pancreatic cancer cell line-derived xenograft. As to the kind of experiment: Test Example 4: anti-tumor activity in PK-59 xenograft mice. The assay is classed as in vivo. The note with it: PK-59 xenograft nude mice, 10 mg/kg into tail vein, twice with an interval of once a week. The protocol: Test Example 4: Evaluation of Anti-Tumor Activity in Human KRAS G12D Mutant-Positive PK-59 Pancreatic Cancer Cell Line-Derived Xenograft Mice
PK-59 cells (RTKEN BRC, RCB 1901) were cultured using a RPMI 1640 medium containing 10% fetal bovine serum in the presence of 5% CO2 at 37° C. The PK-59 cells were collected and suspended in PBS, and after adding an equal amount of Matrigel (from Becton, Dickinson and Company), the cell suspension prepared at 1.0×10^7 to 2.0×10^7 cells/mL was subcutaneously inoculated in a volume of 100 μL in 4- to 6-week-old male nude mice (CAnN.Cg-Foxn1^nu/CrlCrlj (nu/nu), from Charles River Laboratories Japan). About two weeks after the inoculation, the mice were divided into groups so that all the groups had approximately the same tumor volume and body weight, and administration of test compounds was started on the next day. The study was conducted for 5 mice each of a vehicle group and test compound administration groups. The compounds of Example 8, Example 48 and Example 70 were dissolved in a solvent containing ethanol (from FUJIFILM Wako Pure Chemical Corporation), a 5% glucose solution (from Otsuka Pharmaceutical), 1M hydrochloric acid (from Kanto Chemical Co., Inc.), an aqueous 50% (2-hydroxypropyl)-β-cyclodextrin (HP-βCD) solution (from ROQUETTE), HCO-40 (from Nikko Chemicals Co., Ltd.) and an aqueous 1M sodium hydroxide solution (from Kanto Chemical Co., Inc.) at a liquid amount ratio of 4:84.4:1.1:1:9:0.5. The compounds of Example 22 and Example 26 were dissolved in a solvent containing propylene glycol (from FUJIFILM Wako Pure Chemical Corporation), Tween80 (from Nacalai Tesque) and Otsuka normal saline (from Otsuka Pharmaceutical) at a liquid amount ratio of 6.7:3.3:90. The compound of Example 39 was dissolved in a solvent containing propylene glycol, ethanol, an aqueous 50% HP-PCD solution, HCO-40 and a 5% glucose solution at a liquid amount ratio of 10:8:10:10:62. The test compounds dissolved in the respective solvents or the solvents were administered into tail vein. The administration was performed twice with an interval of once a week. The tumor sizes and the body weights were measured twice a week. The tumor volumes were calculated using the following equation.
[Tumor volume (mm^3)]=[Major axis of tumor (mm)]×[Minor axis of tumor (mm)]^2×0.5
The tumor growth inhibitions (%) by the test compounds were calculated with the tumor volumes of the test compound administration groups on the previous day of the start of the administration taken as 100% inhibition and the tumor volumes of the vehicle groups two weeks after the initial administration taken as 0% inhibition. In addition, when the tumor volume of a test compound administration group was smaller than the tumor volume on the previous day of the start of the administration, the tumor regression (%) by the test compound was calculated with the tumor volume on the previous day of the start of the administration taken as 0% regression and with the tumor volume 0 taken as 100% regression. The molecular weights of the test compounds were calculated as the molecular weights of the dihydrochloride for Example No. 22 and the free forms forming no salt for the remaining Example Nos. The results for some test compounds of the formula (I) are shown in Table 5.
As for `CCn1nccc1-c1ccc([C@H](CO)NC(=O)[C@@H]2C[C@@H](O)CN2C(=O)[C@H](C(C)C)n2cc(-c3ccc(COc4c(-c5c(C)c(F)cc6[nH]ncc56)c(C5CC5)cc5c(N6C[C@@H]7C[C@H]6CN7)nc(OC[C@H](C)OC)nc45)cc3)nn2)cc1` [Example 70], the “Anti-Tumor Activity Two Weeks After Initial Administration (tumor regression)” value was 42% regression.
As to `Cc1c(F)cc2[nH]ncc2c1-c1c(C2CC2)cc2c(N3C[C@@H]4C[C@H]3CN4)nc(OC3CCOCC3)nc2c1OCc1ccc(-c2cn([C@H](C(=O)N3C[C@H](O)C[C@H]3C(=O)N[C@@H](CO)c3ccc(-c4ccnn4C)cc3)C(C)C)nn2)cc1` [Example 22], the “Anti-Tumor Activity Two Weeks After Initial Administration (tumor growth inhibition)” value is reported as 93% inhibition.
For the compound `CCn1nccc1-c1ccc([C@H](CO)NC(=O)[C@@H]2C[C@@H](O)CN2C(=O)[C@H](C(C)C)n2cc(-c3ccc(COc4c(-c5c(C)c(F)cc6[nH]ncc56)c(C5CC5)cc5c(N6C[C@@H]7C[C@H]6CN7)nc(OC6CCOCC6)nc45)cc3)nn2)cc1` [Example 26], the “Anti-Tumor Activity Two Weeks After Initial Administration (tumor growth inhibition)” value was found to be 94% inhibition.
As for `Cc1ncsc1-c1ccc([C@H](CO)NC(=O)[C@@H]2C[C@@H](O)CN2C(=O)[C@H](C(C)C)n2cc(-c3ccc(COc4c(-c5c(C)c(F)cc6[nH]ncc56)c(C5CC5)cc5c(N6C[C@@H]7C[C@H]6CN7)nc(OC6CCOCC6)nc45)cc3)nn2)cc1` [Example 8, (4R)-1-[(2S)-2-(4-{4-[({6-cyclopropyl-4-[(1S,4S)-2,5-diazabicyclo[2.2.1]heptan-2-yl]-7-(6-fluoro-5-methyl-1H-indazol-4-yl)-2-[(oxan-4-yl)oxy]quinazolin-8-yl}oxy)methyl]phenyl}-1H-1,2,3-triazol-1-yl)-3-methylbutanoyl]-4-hydroxy-N-{(1R)-2-hydroxy-1-[4-(4-methyl-1,3-thiazol-5-yl)phenyl]ethyl}-L-prolinamide], the “Anti-Tumor Activity Two Weeks After Initial Administration (tumor growth inhibition)” value was 98% inhibition.
For `CO[C@H](C)[C@@H](C)Oc1nc(N2C[C@@H]3C[C@H]2CN3)c2cc(C3CC3)c(-c3c(C)c(F)cc4[nH]ncc34)c(OCc3ccc(-c4cn([C@H](C(=O)N5C[C@H](O)C[C@H]5C(=O)N[C@@H](CO)c5ccc(-c6scnc6C)cc5)C(C)C)nn4)cc3)c2n1` [Example 39], the “Anti-Tumor Activity Two Weeks After Initial Administration (tumor regression)” value is 13% regression.
Still for that read-out and setting: in the case of `CO[C@@H](C)COc1nc(N2C[C@@H]3C[C@H]2CN3)c2cc(C3CC3)c(-c3c(C)c(F)cc4[nH]ncc34)c(OCc3ccc(-c4cn([C@H](C(=O)N5C[C@H](O)C[C@H]5C(=O)N[C@@H](CO)c5ccc(-c6scnc6C)cc5)C(C)C)nn4)cc3)c2n1` [Example 48] it was 32% regression.
